Test results reported in ChEMBL document CHEMBL2074480, “Characterization of tetrandrine, a potent inhibitor of P-glycoprotein-mediated multidrug resistance” (Cancer Chemother Pharmacol, 2004).

Molecular target: ATP-dependent translocase ABCB1 (Homo sapiens, UniProt P08183)
Experiment: TP_TRANSPORTER: drug resistance (vincristine) in KBV200 cells
Type: functional, cell-based

Chain of ATP-dependent translocase ABCB1 (P08183 whole entry): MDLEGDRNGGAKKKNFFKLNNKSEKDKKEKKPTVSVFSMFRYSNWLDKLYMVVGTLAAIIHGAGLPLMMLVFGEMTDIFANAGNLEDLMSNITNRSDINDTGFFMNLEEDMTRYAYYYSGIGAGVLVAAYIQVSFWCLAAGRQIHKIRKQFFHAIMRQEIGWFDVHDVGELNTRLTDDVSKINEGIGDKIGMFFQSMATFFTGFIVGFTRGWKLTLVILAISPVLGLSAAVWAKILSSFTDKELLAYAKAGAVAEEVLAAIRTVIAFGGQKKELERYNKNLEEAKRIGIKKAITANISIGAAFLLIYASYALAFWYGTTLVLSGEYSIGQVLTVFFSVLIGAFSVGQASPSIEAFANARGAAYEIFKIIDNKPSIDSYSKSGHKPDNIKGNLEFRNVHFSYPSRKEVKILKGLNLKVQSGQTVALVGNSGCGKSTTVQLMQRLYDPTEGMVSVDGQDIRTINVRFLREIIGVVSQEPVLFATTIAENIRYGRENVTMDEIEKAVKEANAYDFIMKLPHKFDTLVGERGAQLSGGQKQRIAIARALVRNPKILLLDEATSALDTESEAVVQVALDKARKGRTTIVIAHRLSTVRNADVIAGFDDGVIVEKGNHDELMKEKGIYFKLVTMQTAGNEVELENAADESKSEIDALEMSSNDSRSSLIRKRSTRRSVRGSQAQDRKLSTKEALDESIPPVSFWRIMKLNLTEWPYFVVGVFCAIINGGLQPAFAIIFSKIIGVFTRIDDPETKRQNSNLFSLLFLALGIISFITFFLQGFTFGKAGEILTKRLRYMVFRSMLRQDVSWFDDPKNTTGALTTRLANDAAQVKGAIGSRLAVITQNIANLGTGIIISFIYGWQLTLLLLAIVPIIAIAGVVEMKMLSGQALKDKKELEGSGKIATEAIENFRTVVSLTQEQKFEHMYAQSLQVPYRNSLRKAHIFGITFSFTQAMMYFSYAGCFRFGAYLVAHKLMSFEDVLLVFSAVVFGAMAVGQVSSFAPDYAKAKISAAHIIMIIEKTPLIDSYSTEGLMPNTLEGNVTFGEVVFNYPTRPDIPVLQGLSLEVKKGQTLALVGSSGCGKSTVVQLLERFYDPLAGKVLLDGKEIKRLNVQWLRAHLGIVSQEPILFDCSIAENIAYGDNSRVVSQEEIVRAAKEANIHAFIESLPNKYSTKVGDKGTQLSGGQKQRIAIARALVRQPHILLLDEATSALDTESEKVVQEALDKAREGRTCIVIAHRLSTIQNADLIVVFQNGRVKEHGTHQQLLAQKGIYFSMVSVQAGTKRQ

## COc1ccc2cc1Oc1ccc(cc1)C[C@H]1c3cc(c(OC)cc3CCN1C)Oc1c(OC)c(OC)cc3c1[C@H](C2)N(C)CC3 [FANCHININ]
  Activity: inhibitor [+]
